Measurements published in patent publication US12371454B2, “Cyclic peptide compound having Kras inhibitory action” (priority 2019, dated 2025).
Starred links: 1 amine or outer side, 2 acyl side, 3 side chain; linkers in the order of their positions; H or OH if unused. Positions of bridges follow the written chain, without caps; N, C: chain ends. Non-standard residues stand in square brackets, D forms with d. Residues, ends and D or L forms follow the SMILES beside them. *: point of attachment. hPhe(3,5-F2-4-CF3) = N[C@@H](CCc1cc(F)c(C(F)(F)F)c(F)c1)C(=O)O; hPhe(3-Cl-4-CF3) = N[C@@H](CCc1ccc(C(F)(F)F)c(Cl)c1)C(=O)O; NMePhe(4-CF3) = CN[C@@H](Cc1ccc(C(F)(F)F)cc1)C(=O)O; hPhe(4-CF3) = N[C@@H](CCc1ccc(C(F)(F)F)cc1)C(=O)O; NMePhe(4-Cl) = CN[C@@H](Cc1ccc(Cl)cc1)C(=O)O; NMePhe(4-Me) = CN[C@@H](Cc1ccc(C)cc1)C(=O)O; NMeMet(O2) = CN[C@@H](CCS(C)(=O)=O)C(=O)O; NMedβ3hAla = C[C@H](CC(=O)[*:2])N(C)[*:1]; NMeGly(cPent) = CN[C@H](C(=O)O)C1CCCC1; Pro(4,4-F2) = O=C(O)[C@@H]1CC(F)(F)CN1; NMeAla(cPr) = CN[C@@H](CC1CC1)C(=O)O; NMeCha = CN[C@@H](CC1CCCCC1)C(=O)O; NMeF = CN[C@@H](Cc1ccccc1)C(=O)O; NMeD = CN[C@@H](CC(=O)O)C(=O)O; NMeL = CN[C@@H](CC(C)C)C(=O)O; NMeV = CN[C@H](C(=O)O)C(C)C; d(β3hA) = C[C@@H](N)CC(=O)O; NMeA = CN[C@@H](C)C(=O)O; Piperidide = C1CCN(*)CC1; Pyrrolidide = C1CCN(*)C1; Ac5c = NC1(C(=O)O)CCCC1; Aze = O=C(O)[C@@H]1CCN1; Ac4c = NC1(C(=O)O)CCC1; NBuGly = CCCCNCC(=O)O; X47 = Fc1cncc(C*)c1; NEtG = CCNCC(=O)O; Sar = CNCC(=O)O

What follows are compounds tested against T1, Kras and SOS1 (biotin-tagged human Kras loaded with GDP, His-tagged human SOS1) (Homo sapiens, UniProt P01116, G12D) (assay: Protein-protein interaction inhibition between Kras and SOS1 (KrasGl2D-SOS PPI) using AlphaScreen). Details: AlphaScreen; biotin-tagged human Kras loaded with GDP, His-tagged human SOS1; read-out: KRAS G12D-SOS PPI IC50.
T1 construct: made in house; host or cells: E. coli (stated for Kras only)
Assay type: binding
How it was run: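 Kras was produced in E. coli, purified, then loaded with GDP. It was paired via streptavidin acceptor beads with His-SOS1 held on nickel donor beads, and proximity signal at 520-620 nm was read after 680 nm illumination.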

T1 sequence (P01116 1-188 isoform P01116-2 G12D): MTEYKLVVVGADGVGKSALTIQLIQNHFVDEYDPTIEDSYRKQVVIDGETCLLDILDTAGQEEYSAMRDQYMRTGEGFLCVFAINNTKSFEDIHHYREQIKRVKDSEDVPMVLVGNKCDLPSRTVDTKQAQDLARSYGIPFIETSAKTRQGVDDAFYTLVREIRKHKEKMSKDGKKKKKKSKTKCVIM

SMILES	IC50
CC[C@H](C)[C@@H]1NC(=O)[C@H](CC(C)C)N(C)C(=O)C[C@@H](C)NC(=O)[C@H](C(C)C)N(C)C(=O)C2(CCCC2)NC(=O)[C@@H]2CCCN2C(=O)[C@H](CCc2ccc(C(F)(F)F)c(Cl)c2)NC(=O)CN(C)C(=O)[C@H](CC2CCCCC2)N(C)C(=O)CN(C)C(=O)CN(CC)C1=O [Compound 210] (cyclo([Ac5c][NMeV][d(β3hA)][NMeL]I[NEtG][Sar][NMeCha][Sar][hPhe(3-Cl-4-CF3)]P))	0.08 µM
CC[C@H](C)[C@@H]1NC(=O)[C@H](CC(C)C)N(C)C(=O)C[C@@H](C)N(C)C(=O)[C@H](C2CCCC2)N(C)C(=O)C2(CCCC2)NC(=O)[C@@H]2CC(F)(F)CN2C(=O)[C@H](CCc2cc(F)c(C(F)(F)F)c(F)c2)NC(=O)CN(C)C(=O)[C@H](CC2CCCCC2)N(C)C(=O)[C@@H]2CCN2C(=O)[C@H](C)N(C)C1=O [Compound 628] (cyclo([Ac5c][NMeGly(cPent)][NMedβ3hAla][NMeL]I[NMeA][Aze][NMeCha][Sar][hPhe(3,5-F2-4-CF3)][Pro(4,4-F2)]))	0.02 µM
CC[C@H](C)[C@@H]1NC(=O)[C@H](CC(C)C)N(C)C(=O)C[C@@H](C)NC(=O)[C@H](C2CCCC2)N(C)C(=O)C2(CCCC2)NC(=O)[C@@H]2CCCN2C(=O)[C@H](CCc2ccc(C(F)(F)F)c(Cl)c2)NC(=O)[C@H]2CCCN2C(=O)[C@H](Cc2ccc(C)cc2)N(C)C(=O)[C@@H]2CCN2C(=O)CN(C)C1=O [Compound 1488] (cyclo([Ac5c][NMeGly(cPent)][d(β3hA)][NMeL]I[Sar][Aze][NMePhe(4-Me)][dP][hPhe(3-Cl-4-CF3)]P))	0.26 µM
CC[C@H](C)[C@@H]1NC(=O)[C@H](C)N(C)C(=O)C[C@@H](C(=O)N2CCCC2)NC(=O)[C@H](CC(C)C)N(C)C(=O)[C@H](Cc2ccccc2)N(C)C(=O)[C@H](COCc2cncc(F)c2)NC(=O)[C@H](CCc2ccc(C(F)(F)F)cc2)NC(=O)CN(C)C(=O)[C@H](Cc2ccc(Cl)cc2)N(C)C(=O)CN(C)C(=O)CN(C)C1=O [Compound 513] ([NMeA]I[Sar][Sar][NMePhe(4-Cl)][Sar][hPhe(4-CF3)]S(X47)[NMeF][NMeL]D-Pyrrolidide; lactam N-11)	0.046 µM
CC[C@H](C)[C@@H]1NC(=O)[C@H](CC(C)C)N(C)C(=O)C[C@@H](C)N(C)C(=O)[C@H](C2CCCC2)N(C)C(=O)C2(CCC2)NC(=O)[C@@H]2CC(F)(F)CN2C(=O)[C@H](CCc2ccc(C(F)(F)F)c(Cl)c2)NC(=O)CN(C)C(=O)[C@H](Cc2ccc(C(F)(F)F)cc2)N(C)C(=O)CN(C)C(=O)CN(C)C1=O [Compound 62] (cyclo([Ac4c][NMeGly(cPent)][NMedβ3hAla][NMeL]I[Sar][Sar][NMePhe(4-CF3)][Sar][hPhe(3-Cl-4-CF3)][Pro(4,4-F2)]))	0.0038 µM
CC[C@H](C)[C@@H]1NC(=O)[C@H](CC(C)C)N(C)C(=O)C[C@@H](C)NC(=O)[C@H](C(C)C)N(C)C(=O)C2(CCCC2)NC(=O)[C@@H]2CCCN2C(=O)[C@H](CCc2ccc(C(F)(F)F)c(Cl)c2)NC(=O)CN(C)C(=O)[C@H](CC2CCCCC2)N(C)C(=O)[C@@H]2CCN2C(=O)[C@H](CC2CC2)N(C)C1=O [Compound 1612] (cyclo([Ac5c][NMeV][d(β3hA)][NMeL]I[NMeAla(cPr)][Aze][NMeCha][Sar][hPhe(3-Cl-4-CF3)]P))	0.39 µM
CC[C@H](C)[C@@H]1NC(=O)[C@H](C)N(C)C(=O)C[C@@H](C)NC(=O)[C@H](C(C)C)N(C)C(=O)[C@H](Cc2ccccc2)N(C)C(=O)[C@@H]2CCCN2C(=O)[C@H](CCc2ccc(C(F)(F)F)cc2)NC(=O)CN(C)C(=O)[C@H](Cc2ccc(Cl)cc2)N(C)C(=O)CN(C)C(=O)CN(C)C1=O [Compound 865] (cyclo(I[Sar][Sar][NMePhe(4-Cl)][Sar][hPhe(4-CF3)]P[NMeF][NMeV][d(β3hA)][NMeA]))	0.055 µM
CC[C@H](C)[C@@H]1NC(=O)[C@H](CC(C)C)N(C)C(=O)C[C@@H](C(=O)N2CCCCC2)N(C)C(=O)[C@H](C(C)C)N(C)C(=O)C2(CCCC2)NC(=O)[C@@H]2CCCN2C(=O)[C@H](CCc2ccc(C(F)(F)F)c(Cl)c2)NC(=O)CN(C)C(=O)[C@H](CCS(C)(=O)=O)N(C)C(=O)[C@@H]2CCN2C(=O)[C@H](C)N(C)C1=O [Compound 235] ([NMeL]I[NMeA][Aze][NMeMet(O2)][Sar][hPhe(3-Cl-4-CF3)]P[Ac5c][NMeV][NMeD]-Piperidide; lactam N-11)	0.011 µM
CCCCN1CC(=O)N(C)[C@@H](CC2CCCCC2)C(=O)N(C)CC(=O)N[C@@H](CCc2ccc(C(F)(F)F)c(Cl)c2)C(=O)N2CCC[C@H]2C(=O)NC2(CCCC2)C(=O)N(C)[C@@H](C(C)C)C(=O)N[C@H](C)CC(=O)N(C)[C@@H](CC(C)C)C(=O)N[C@@H]([C@@H](C)CC)C(=O)N(C)CC1=O [Compound 1033] (cyclo([Ac5c][NMeV][d(β3hA)][NMeL]I[Sar][NBuGly][NMeCha][Sar][hPhe(3-Cl-4-CF3)]P))	0.36 µM
